{"source": "patent US4795749A", "about": "“Imidazopyrroloquinoxaline compounds” (A/S Ferrosan, priority 1985, dated 1989)", "test_system": "benzodiazepine receptors", "assay": "in vivo displacement of 3H-flunitrazepam from brain benzodiazepine receptors", "conditions": "female mice, intraperitoneal, 15 min before 3H-FNM i.v.; forebrain 20 min after 3H-FNM", "description": "The pharmaceutical properties of the compounds of the invention can be illustrated by determining their capability for displacing radioactivity labelled flunitrazepam from benzodiazepine receptors.\nThe displacement activity of the compounds of the invention may be found by determining the ED50 value. The ED50 value represents the dose (mg/kg) of a test substance which causes the specific binding of flunitrazepam to benzodiazepine receptors in a living brain to be reduced to 50% of the control value.\nSuch an in vivo test is carried out as follow:\nPrinciple. Twenty minutes after a dose of ^3 H-flunitrazepam (^3 H-FNM) (200 μCi/kg, i.v.) the amount of specific ^3 H-FNM binding to brain benzodiazepine receptors has reached its maximum value.\nTest procedure. […] The amounts of radioactivity on the filters are determined by conventional scintillation counting. […]\nResults. The ED50 value is determined from dose response curves. If only one dose of test substance is administered the ED50 value is calculated as follows, provided that the inhibition of specific binding is within the range of 25-75%: [formula] where Co is specific binding in controls and Cx is specific binding in mice treated with test substance.", "data": [{"smiles": "c1ccc2c(c1)N1CCCC1c1c(-c3noc(C4CC4)n3)ncn1-2", "note": "(stereo not shown)", "values": [{"measurement": "in vivo ED50 (dose reducing specific 3H-flunitrazepam binding to brain benzodiazepine receptors to 50% of the control value)", "value": 5.1, "unit": "mg/kg"}]}]}
